Measurements: patent US11771703B2, “Targeted epigenetic therapy against distal regulatory element of TGFβ2 expression” (The Johns Hopkins University, priority 2017, dated 2023)
Entries after “also recorded” stand apart in the source; their conditions may differ. Numbered stars: 1 amine (or outer) side, 2 acyl side, 3 side chain; on linkers, the order of the positions; unused ones are H or OH. Bridge positions count the residues as written; N and C are the ends. Square brackets hold non-standard residues; d marks the D form. Peptide text beside a SMILES is read from it. I, II: the chains in the order shown. Actinocin(9to1) = Cc1c2oc3c(C)ccc(C(=O)[*:1])c3nc-2c(C(=O)[*:2])c(N)c1=O; NMeV = CN[C@H](C(=O)O)C(C)C; Sar = CNCC(=O)O

Assays:
[1] = system: TGFβ2 mRNA expression in SSc fibroblasts; experiment: TGFβ2 mRNA expression in primary dermal control and SSc fibroblasts, RT-qPCR; type: cell-based, human; settings: for TGFβ2 mRNA expression in SSc fibroblasts after drug removal: 72 hours treatment, then drug removal; for TGFβ2 mRNA expression in SSc fibroblasts under treatment: SSc fibroblasts vs controls, serum-deprived, SGC-CBP30 72 hours, actinomycin D 12 hours; for TGFβ2 mRNA expression upon stimulation with cytokine/ligand: exogenous stimulation of fibroblasts
Experimental: (§1) To test this hypothesis, it was first validated whether primary dermal SSc fibroblast lines established from dermal biopsies maintained stable gene expression differences at baseline. Six dermal fibroblasts lines from SSc patients and five dermal fibroblast lines from healthy controls were cultured in serum-deprived conditions (DMEM+1% FCS) for 48 hours, followed by mRNA isolation. RNAseq analysis indicated significant transcriptomic differences (FDR<0.05) with heightened expression of extracellular matrix genes (P<1E-9) in SSc fibroblasts (FIG. 1A). By RT-qPCR, elevated expression of pro-fibrotic genes, such as COL1A1 and SERPINH1 (FIG. 1B), were independently validated. TGFβ expression, the dominant pro-fibrotic cytokine, was also assessed. […] This indicated transcriptional upregulation of TGFβ2 in SSc fibroblasts.
Since heightened TGFβ2 signaling drives collagen expression in SSc cells, the possible mechanisms of heightened TGFβ2 ligand expression in SSc fibroblasts, was investigated. First, it was determined if SSc fibroblasts were actively transcribing TGFβ2 mRNA by treating SSc or control fibroblasts with the transcriptional inhibitor actinomycin D for 12 hours, followed by mRNA isolation and RT-qPCR.
Second, it was determined if autocrine TGFβ2 signaling drives the steady-state differences in TGFβ2 mRNA expression in SSc fibroblasts. Cells were treated with isotype control or αTGFβ2ab in the presence or absence of saturating levels of exogenous TGFβ2 ligand (10 ng/mL), followed by mRNA isolation and RT-qPCR.
Third, pharmacological acetyltransferase inhibitors were used to support the role of enhancers in TGFβ2 expression and to identify therapeutic strategies for SSc. Bromodomain inhibitor SGC-CBP30 specifically suppresses the acetyltransferase activity of P300. […] This indicated some form of epigenetic memory that re-activates the TGFβ2 enhancer in SSc fibroblasts.

[2] = system: TGFβ2 protein; experiment: TGFβ2 protein expression in SSc fibroblasts (western blot); type: cell-based, human
Experimental: FIG. 1A is a heatmap. Primary control and SSc fibroblasts were cultured ex vivo under serum deprived conditions (DMEM+1% FCS). Unsupervised hierarchical clustering was performed on genes with significant mRNA expression differences (FDR<0.05) assessed by RNA-seq on primary control and SSc fibroblasts. Top ranked GO term result for each gene cluster is indicated on the left of the heatmap. FIG. 1B are plots showing mRNA transcript levels measured by RT-qPCR. FIG. 1C: Transcript differences were correlated with protein expression by western blot under same culture conditions. FIG. 1D: Effects of TGFβ2 ligand stimulation on collagen expression was assessed in SSc fibroblasts. FIG. 1E: Effects of autocrine TGFβ2 signaling on mRNA expression of collagen was assessed through treatment of control and SSc fibroblasts with anti-TGFβ2 neutralizing antibody, followed by RT-qPCR. FIG. 1F: Effects of autocrine TGFβ2 stimulation on mRNA expression of TGFβ2 was assessed through treatment of control and SSc fibroblasts with combinations of anti-TGFBβ2 neutralizing antibody and exogenous TGFβ2 ligand ([…]). […]

[3] = system: collagen expression in SSc fibroblasts; experiment: Collagen / fibrotic synthetic repertoire (FSR) expression in SSc fibroblasts, RT-qPCR; type: cell-based, human
Experimental: as §1
This provided evidence that autocrine TGFβ2 signaling drives high collagen expression in SSc. To test this, the activity of ALK5, a TGFβ receptor kinase required by all TGFβ isoforms, was inhibited. ALK5 inhibition normalized collagen expression in SSc fibroblasts (FIG. 1E, P<0.05).

[4] = system: TGFB2 enhancer; settings: Chem-seq database GSE44098, GSE43743; cited from earlier work
[5] = system: SSc fibroblasts; experiment: RNA-seq transcriptome of vehicle or JQ1-treated control or SSc fibroblasts; type: cell-based, human
From the text: The negative enantiomer of JQ1 was used as a negative control. […] In FIGS. 4G and 4H, BRD4 inhibition with JQ1 normalizes TGFβ2 protein and collagen mRNA expression in SSc fibroblasts. In FIGS. 4I, 4J and 4K, JQ1 treatment normalizes chromatin accessibility, H3K27ac and BRD4 occupancy at the TGFB2 enhancer in SSc fibroblasts. […] FIG. 4M: Heatmap of unsupervised hierarchical clustering of differentially expressed genes between vehicle or JQ1-treated control or SSc fibroblasts by RNA-seq (N=2). Rows represent differentially expressed genes between vehicle-treated control and SSc fibroblasts (FDR<0.05). Differences in expression of these genes are mitigated in SSc fibroblasts upon JQ1 treatment. […] Blue and red bars represent control and SSc fibroblasts, respectively. Ncontrol=5 and NSSc=6. Lower and upper margins of each bar indicate 25th and 75th percentiles, respectively; the internal line indicates the mean and whiskers indicate the range. Black points represent individual samples. All mRNA levels were normalized to GAPDH mRNA levels, respectively. […]
To test this hypothesis, it was first validated whether primary dermal SSc fibroblast lines established from dermal biopsies maintained stable gene expression differences at baseline. […] TGFβ expression, the dominant pro-fibrotic cytokine, was also assessed. […]

[6] = system: TGFB2 enhancer (Enhancer 4514); experiment: Chromatin accessibility at the TGFB2 enhancer (ATAC); type: cell-based, human; settings: SSc fibroblasts under treatment
From the text: (§2) The negative enantiomer of JQ1 was used as a negative control. […] In FIGS. 4G and 4H, BRD4 inhibition with JQ1 normalizes TGFβ2 protein and collagen mRNA expression in SSc fibroblasts. In FIGS. 4I, 4J and 4K, JQ1 treatment normalizes chromatin accessibility, H3K27ac and BRD4 occupancy at the TGFB2 enhancer in SSc fibroblasts. […] FIG. 4M: Heatmap of unsupervised hierarchical clustering of differentially expressed genes between vehicle or JQ1-treated control or SSc fibroblasts by RNA-seq (N=2). Rows represent differentially expressed genes between vehicle-treated control and SSc fibroblasts (FDR<0.05). Differences in expression of these genes are mitigated in SSc fibroblasts upon JQ1 treatment. […] Blue and red bars represent control and SSc fibroblasts, respectively. Ncontrol=5 and NSSc=6. Lower and upper margins of each bar indicate 25th and 75th percentiles, respectively; the internal line indicates the mean and whiskers indicate the range. Black points represent individual samples. All mRNA levels were normalized to GAPDH mRNA levels, respectively. All experiments other than RNA-seq and ATAC-qPCR were repeated at least twice with similar results.
To test this hypothesis, an RNA-seq and Assay for Transposase-Accessible Chromatin Sequencing (ATAC-seq) were performed on three primary control fibroblast lines and three primary SSc fibroblast lines^7. […]

[7] = system: TGFB2 enhancer (Enhancer 4514); experiment: ChIP-qPCR occupancy (P300, BRD4, H3K27ac) at the TGFB2 enhancer; type: cell-based, human
From the text: as §2
Detecting activation status of TGFβ2 enhancer: To determine the activation status of the enhancer for TGFβ2 expression, chromatin immunoprecipitation was performed, followed by quantitative PCR (CHIP-qPCR), using primers that were uniquely designed based on ATAC-seq data for primary fibroblasts and published ENCODE data. The current method of detecting the activation status of TGFβ2 enhancer was implemented on primary human fibroblast cell lines established from dermal biopsies of normal controls or Scleroderma patients. However, the current method is applicable to adherent or non-adherent cells from tissue or blood of subjects (e.g., human patients).
To determine if Enhancer 4514 was biologically functional, a three-pronged approach was taken. First, active and functional enhancers are strongly associated with H3K27ac histone modifications with heightened occupancy of P300 (histone acetyltransferase) (Cato E et al. (2013) Cell Molecular Cell Reviews. 49:825-837). Thus, chromatin immunoprecipitation was used followed by qPCR (ChIP-qPCR) to determine the level of H3K27ac and P300 at Enhancer 4514 in SSc and control fibroblasts under baseline serum-deprived conditions. […] Furthermore, moderately higher levels of phosphorylated SMAD2 occupancy was found at enhancer 4514 in SSc.

[8] = system: TGFβ1 mRNA expression; experiment: TGFβ1 mRNA expression in fibroblasts, RT-qPCR; type: cell-based, human; settings: fibroblasts under treatment
[9] = system: Scleroderma cells; experiment: Cell toxicity of CBP/P300 inhibitor treatment
[10] = system: TGFβ3 mRNA expression; experiment: TGFβ3 mRNA expression in fibroblasts, RT-qPCR; type: cell-based, human; settings: fibroblasts under treatment
[11] = SSc fibroblasts under treatment
[12] = SSc fibroblasts, 72 hours treatment then removal

CC(C)(C)c1ccc(S(=O)(=O)/C=C/C#N)cc1 [BAY 11-7085]
TGFβ2 mRNA expression in SSc fibroblasts after drug removal [1]: sustained normalization | TGFβ2 mRNA expression in SSc fibroblasts after drug removal ([1]; listed as BAY 11-70585): sustained repression | TGFβ2 mRNA expression in SSc fibroblasts under treatment [1]: robustly suppressed | TNFα-induced TGFB2 mRNA expression under co-treatment ([1]; co-treatment with TNFα): prevents TGFB2 induction

Cc1sc2c(c1C)C(c1ccc(Cl)cc1)=N[C@@H](CC(=O)OC(C)(C)C)c1nnc(C)n1-2 [JQ1]
TGFβ2 mRNA expression in SSc fibroblasts after drug removal [1]: sustained repression; also recorded: sustained suppression; also recorded: maintained even after drug removal | TGFβ2 mRNA expression in SSc fibroblasts under treatment [1]: rapidly normalized; also recorded: decreased | TGFβ2 mRNA induction by exogenous TGFβ2 ligand under co-treatment ([1]; co-stimulation with TGFβ2 ligand (10 ng/mL)): failed to induce TGFβ2 mRNA expression | TGFβ2 mRNA expression in SSc fibroblasts after a single 48 hr regiment ([1]; single 48 hr regiment): permanently normalizes | TGFβ2 protein levels in SSc fibroblasts [2]: rapidly normalized; also recorded: normalizes | fibrotic synthetic repertoire (FSR) in SSc cells ([3]; e.g. COL1A1, SERPINH1): normalization | collagen expression in SSc fibroblasts ([3]; mRNA, RT-qPCR): rapidly normalized; also recorded: normalizes | binding at the TGFB2 enhancer (Chem-seq) [4]: specifically bound to the TGFB2 enhancer; also recorded: specific binding | transcriptomic differences between control and SSc fibroblasts (RNA-seq) ([5]; N=2): significantly mitigated transcriptomic differences | clustering in principal component analysis of RNA-seq ([5]; PC1, 67% of total variance): cluster together with control samples in PC1; also recorded: cluster with control fibroblasts | chromatin accessibility at the TGFB2 enhancer [6]: complete normalization; also recorded: normalizes | BRD4 occupancy at the TGFB2 enhancer [7, 11]: complete normalization; also recorded: normalizes | H3K27ac at the TGFB2 enhancer [7, 11]: complete normalization; also recorded: normalizes | BRD4 occupancy at the TGFB2 enhancer after drug removal [7, 12]: continued normalization; also recorded: sustained normalization | H3K27ac at the TGFB2 enhancer after drug removal [7, 12]: continued normalization; also recorded: sustained normalization | P300 occupancy at the TGFB2 enhancer after drug removal [7, 12]: continued normalization; also recorded: sustained normalization

COc1ccc(CCc2nc3cc(-c4c(C)noc4C)ccc3n2C[C@H](C)N2CCOCC2)cc1Cl [SGC-CBP30]
TGFβ2 mRNA expression in SSc fibroblasts after drug removal [1]: rebounded to steady-state levels | TGFβ2 mRNA expression in SSc fibroblasts under treatment [1]: normalized TGFβ2 expression in SSc fibroblasts to levels comparable to that of controls; also recorded: suppressed; also recorded: decrease TGFβ2 expression in Scleroderma cells to levels comparable to that of control | TGFβ2 mRNA expression in SSc fibroblasts under treatment ([1]; listed as SGC-CBP300): specifically decrease | TGFβ2 mRNA level in SSc cells compared to control after drug removal ([1]; after 72 hours of treatment and drug removal): 3 fold | TGFβ1 mRNA expression [8]: not TGFβ1 or TGFβ3 | cell toxicity [9]: minimal cell toxicity | TGFβ3 mRNA expression [10]: not TGFβ1 or TGFβ3 | P300 occupancy of the TGFB2 enhancer under treatment ([7]; SSc fibroblasts, 72 hours): suppressed | P300 occupancy at the TGFB2 enhancer after drug removal [7, 12]: re-establish high P300 occupancy; also recorded: rebounded to steady-state levels

Cc1c2oc3c(C)ccc(C(=O)N[C@@H]4C(=O)N[C@H](C(C)C)C(=O)N5CCC[C@H]5C(=O)N(C)CC(=O)N(C)[C@@H](C(C)C)C(=O)O[C@@H]4C)c3nc-2c(C(=O)N[C@@H]2C(=O)N[C@H](C(C)C)C(=O)N3CCC[C@H]3C(=O)N(C)CC(=O)N(C)[C@@H](C(C)C)C(=O)O[C@@H]2C)c(N)c1=O [actinomycin D] (I: T[dV]P[Sar][NMeV] / II: T[dV]P[Sar][NMeV]; ester I:1-I:C, II:1-II:C; linker I:N-II:N via Actinocin(9to1))
TGFβ2 mRNA expression in SSc fibroblasts under treatment [1]: completely normalized | TGFβ1 mRNA expression [8]: did not significantly alter | TGFβ3 mRNA expression [10]: did not significantly alter

TNFα
TGFβ2 mRNA expression upon stimulation with cytokine/ligand [1]: increased TGFβ2 expression; also recorded: induces TGFB2 mRNA expression

B1: TGFβ2 ligand: exogenous TGFβ2 ligand (10 ng/mL) (protein, UniProt P61812 303-414, looked up)
Transforming growth factor …: ALDAAYCFRNVQDNCCLRPLYIDFKRDLGWKWIHEPKGYNANFCAGACPYLWSSDTQHSRVLSLYNTINPEASASPCCVSQDLEPLTILYYIGKTPKIEQLSNMIVKSCKCS
TGFβ2 mRNA expression upon stimulation with cytokine/ligand [1]: pronounced further increase in TGFβ2 mRNA
